Tested on: Ba/F3 cells expressing EGFR-Del/T790M
Assay: tumor model using Ba/F3 cells expressing EGFR-Del/T790M
Type: in vivo, mice
From the text: NSCLC cell lines as well as engineered Ba/F3 and NIH3T3 cell lines were used to examine the activity of compounds of formula (I) against 3 general forms of EGFR: native EGFR (the naturally occurring form), EGFR with an activating mutation (delE746_A750 [Del] or L858R; this form is sensitive to first generation EGFR inhibitors), and EGFR with both an activating mutation and a T790M resistance mutation (L858R/T790M or Del/T790M; the addition of the T790M mutation makes this form resistant to first generation EGFR inhibitors). Effects of test compounds on EGFR signaling were assessed by measuring levels of phosphorylated EGFR, effects on in vitro proliferation measured by a growth or viability assay, and effects on in vivo tumor growth measured in mice following daily oral dosing.

SMILES: COc1cc(N2CCC(N3CCN(C)CC3)CC2)ccc1Nc1ncc(Cl)c(Nc2ccccc2P(C)(C)=O)n1 [AP26113]
- inhibition at 50 mg/kg (Mus musculus, BaF3, 24 h, read-out: inhibition of levels of phosphorylated EGFR in the tumor): > 80%
- tumor growth inhibition (daily oral dosing with 50 mg/kg): > 90%
